PMC5328627 (Journal of natural products, 2009)

Assays:
Type in all cases: cell-based, human
NCI-H522 = settings: non-small cell lung cancer cell line; single high dose 10^−5 M
IGROV1 = settings: ovarian cancer cell line; single high dose 10^−5 M
UO-31 = settings: renal cancer cell line; single high dose 10^−5 M

Substance	Percent growth of NCI-H522 (NCI-H522)	Percent growth of IGROV1 (IGROV1)	Percent growth of UO-31 (UO-31)
cyclo(ATPFVPP) (SMILES CC(C)[C@@H]1NC(=O)[C@H](Cc2ccccc2)NC(=O)[C@@H]2CCCN2C(=O)[C@H]([C@@H](C)O)NC(=O)[C@H](C)NC(=O)[C@@H]2CCCN2C(=O)[C@@H]2CCCN2C1=O) [compound 2, euryjanicin B]	83.9%	91.3%	76.3%
cyclo(FSPIFPI) (SMILES CC[C@H](C)[C@@H]1NC(=O)[C@@H]2CCCN2C(=O)[C@H](CO)NC(=O)[C@H](Cc2ccccc2)NC(=O)[C@H]([C@@H](C)CC)NC(=O)[C@@H]2CCCN2C(=O)[C@H](Cc2ccccc2)NC1=O) [compound 4, euryjanicin D]	94.6%	100%	82.7%
cyclo(SIPLFPI) (SMILES CC[C@H](C)[C@@H]1NC(=O)[C@@H]2CCCN2C(=O)[C@H](Cc2ccccc2)NC(=O)[C@H](CC(C)C)NC(=O)[C@@H]2CCCN2C(=O)[C@H]([C@@H](C)CC)NC(=O)[C@H](CO)NC1=O) [compound 3, euryjanicin C]	95.1%	100%	83.4%
dominicin [compound 5]	100%	100%	32.8%
euryjanicin A [compound 1]	72.2%	82.6%	73.6%
